The values below come from PubChem BioAssay (NCI).

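Five compound concentrations were applied to cells in 96-well plates for 48 hours; endpoints were derived by simple linear interpolation of the resulting dose-response curve. Abbreviation: GI50, concentration required for 50% inhibition of growth. TGI: total growth inhibition.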 Bounds are passed on as bounds.

Test systems include M14 melanoma; SF-539 CNS; SK-MEL-2 melanoma; NCI-H460 lung; CAKI-1 renal; NCI-H23 lung; NCI-H522 lung; NCI/ADR-RES ovarian; TK-10 renal; EKVX NSCLC.
Assay in all cases: growth of human tumour cells (NCI), 48 h

For `COc1ccc(C2=CC(c3ccc(OC)cc3Br)N3C=CSC3=N2)cc1` (centres undefined), the GI50 is 5.21 µM with M14 melanoma; 4.61 µM in the assay on SF-539 CNS; 15.2 µM in the assay on SK-MEL-2 melanoma; 11.9 µM in the assay with NCI-H460 lung; 13.4 µM in the assay with CAKI-1 renal; 15.2 µM with NCI-H23 lung. Besides, the GI50 in the assay on NCI-H522 lung was 5.22 µM; in the assay on NCI/ADR-RES ovarian it was 4.43 µM; in the assay with TK-10 renal it was 13.9 µM. Moreover, the TGI with M14 melanoma was found to be 20.8 µM; with SF-539 CNS, 17.1 µM; with SK-MEL-2 melanoma it was 31.3 µM; in the assay on NCI-H460 lung it was 34.6 µM; with CAKI-1 renal, 51.4 µM; in the assay on NCI-H23 lung, 42.8 µM. Besides, the TGI was determined as 20.7 µM in the assay with NCI-H522 lung, 29 µM with NCI/ADR-RES ovarian and 33.3 µM in the assay with TK-10 renal.
For the compound `Cn1cccc1-c1cc(-c2ccc(Br)cc2)[nH]c(=O)c1C#N`, the GI50 was 89.3 µM with SF-539 CNS; more than 100 µM with SK-MEL-2 melanoma; more than 100 µM in the assay on NCI-H460 lung; more than 100 µM with CAKI-1 renal; more than 100 µM in the assay with NCI-H23 lung; 82.1 µM with NCI-H522 lung. In addition, the results for the GI50 in the assay with NCI/ADR-RES ovarian, in the assay on EKVX NSCLC and with TK-10 renal were more than 100 µM, 34.5 µM and more than 100 µM, respectively. In addition, the TGI in the assay on SF-539 CNS, in the assay with SK-MEL-2 melanoma, in the assay with NCI-H460 lung, with CAKI-1 renal, with NCI-H23 lung and in the assay with NCI-H522 lung was more than 100 µM throughout. Also, the TGI in the assay on NCI/ADR-RES ovarian, in the assay with EKVX NSCLC and in the assay on TK-10 renal was more than 100 µM throughout.
With `CC(C)(C)c1[nH]nc2c1C(c1cc3ccccc3[nH]c1=O)Nc1cc(C(=O)OCc3ccccc3)ccc1N2` (centres undefined), the GI50 in the assay on M14 melanoma is 4.28 µM; with SF-539 CNS, 4.56 µM; with SK-MEL-2 melanoma, 3.33 µM; in the assay on NCI-H460 lung, 3.14 µM; in the assay with CAKI-1 renal, 8.75 µM; with NCI-H23 lung, 5.14 µM. Further, the GI50 in the assay on NCI-H522 lung is 3.11 µM; in the assay on NCI/ADR-RES ovarian, more than 100 µM; with TK-10 renal, 3.83 µM. Moreover, the TGI is more than 100 µM in the assay on M14 melanoma; more than 100 µM in the assay with SF-539 CNS; 7.28 µM in the assay on SK-MEL-2 melanoma; more than 100 µM with NCI-H460 lung; more than 100 µM with CAKI-1 renal; more than 100 µM with NCI-H23 lung. Besides, the results for the TGI in the assay on NCI-H522 lung, in the assay with NCI/ADR-RES ovarian and in the assay on TK-10 renal were 8.78 µM, more than 100 µM and 19.6 µM, respectively.
As for `COc1ccccc1CNCCCN1C(=O)c2ccc3c4c(ccc(c24)C1=O)C(=O)N(CCCN)C3=O`, the GI50 in the assay with M14 melanoma is 0.833 µM; in the assay with SF-539 CNS it was 1.21 µM; in the assay on SK-MEL-2 melanoma, 1.46 µM; in the assay with NCI-H460 lung it was 0.553 µM; in the assay with CAKI-1 renal it was 1.76 µM; in the assay with NCI-H23 lung, 0.94 µM. The GI50 with NCI-H522 lung was 1.51 µM; with NCI/ADR-RES ovarian, 2.86 µM; in the assay on TK-10 renal it was 2.28 µM. The TGI in the assay on M14 melanoma is 2.34 µM; in the assay with SF-539 CNS it was 2.5 µM; in the assay with SK-MEL-2 melanoma, 3.31 µM; in the assay on NCI-H460 lung, 2.16 µM; with CAKI-1 renal, 4.73 µM; in the assay on NCI-H23 lung, 3.74 µM. The values for the TGI with NCI-H522 lung, in the assay on NCI/ADR-RES ovarian and with TK-10 renal were 2.97 µM, 9.6 µM and 7.89 µM, respectively.
`O=[N+]([O-])c1ccc(N=Nc2ccc(O)c3ccccc23)cc1`: the GI50 in the assay with SF-539 CNS was 10.3 µM; with SK-MEL-2 melanoma, 3.23 µM; in the assay with NCI-H460 lung, 3.49 µM; in the assay on CAKI-1 renal it was 4.17 µM; in the assay with NCI-H23 lung it was 1.79 µM; in the assay on NCI-H522 lung, 2.23 µM. For the same compound, the GI50 is 2.41 µM in the assay with NCI/ADR-RES ovarian, 7.44 µM in the assay on EKVX NSCLC and 2.81 µM in the assay on TK-10 renal. Besides, the TGI in the assay on SF-539 CNS is more than 100 µM; in the assay with SK-MEL-2 melanoma, 21.8 µM; with NCI-H460 lung it was 27.1 µM; in the assay on CAKI-1 renal it was more than 100 µM; in the assay on NCI-H23 lung it was 6.88 µM; in the assay with NCI-H522 lung, 8.18 µM. For the same compound, the TGI in the assay with NCI/ADR-RES ovarian was 55.8 µM; with EKVX NSCLC it was more than 100 µM; in the assay with TK-10 renal it was more than 100 µM.
Consider `Nc1ncnc2c1c(-c1ccc(Oc3ccccc3)cc1)nn2C[C@@H]1SSC[C@H]1O`, for which the GI50 was 1.02 µM with SF-539 CNS; 0.826 µM with SK-MEL-2 melanoma; 0.281 µM with NCI-H460 lung; 2.18 µM in the assay with CAKI-1 renal; 0.916 µM in the assay on NCI-H23 lung; 2.08 µM in the assay with NCI-H522 lung. Further, the GI50 is 2.96 µM with NCI/ADR-RES ovarian, 0.568 µM in the assay with EKVX NSCLC and 1.49 µM with TK-10 renal. Moreover, the TGI in the assay on SF-539 CNS came to 8.02 µM; with SK-MEL-2 melanoma, 3.13 µM; with NCI-H460 lung, 1.45 µM; in the assay with CAKI-1 renal, 10.5 µM; with NCI-H23 lung, 8.17 µM; with NCI-H522 lung, 7.18 µM. The TGI in the assay with NCI/ADR-RES ovarian was 14 µM; with EKVX NSCLC, 10.5 µM; with TK-10 renal, 3.16 µM.
Regarding `COc1ccc(C2=C(c3ccc(OC)c(OC)c3)C(=O)N3CCCC3C2)cc1` (centres undefined), the GI50 in the assay with M14 melanoma is 35.9 µM; in the assay with SF-539 CNS it was 12 µM; with SK-MEL-2 melanoma it was more than 71.1 µM; with NCI-H460 lung, 4.46 µM; in the assay with CAKI-1 renal it was 39.4 µM; in the assay with NCI-H23 lung, more than 90.4 µM. The GI50 with NCI-H522 lung was 15.7 µM; in the assay on NCI/ADR-RES ovarian, 39.6 µM; in the assay on TK-10 renal, 76.2 µM. For the same compound, the TGI is more than 100 µM with M14 melanoma; more than 100 µM in the assay on SF-539 CNS; more than 100 µM in the assay with SK-MEL-2 melanoma; 23.3 µM in the assay on NCI-H460 lung; more than 100 µM in the assay on CAKI-1 renal; more than 100 µM in the assay on NCI-H23 lung. Moreover, the TGI in the assay on NCI-H522 lung, with NCI/ADR-RES ovarian and with TK-10 renal was more than 100 µM each time.
In the case of `Nc1c(C(=O)c2cccc(C#CCO)c2)cnn1-c1ccc(F)cc1`, the GI50 with M14 melanoma, in the assay with SF-539 CNS, in the assay with SK-MEL-2 melanoma, in the assay with NCI-H460 lung, in the assay with CAKI-1 renal and in the assay with NCI-H23 lung was more than 25 µM each time. The GI50 in the assay on NCI-H522 lung, with NCI/ADR-RES ovarian and in the assay with TK-10 renal was more than 25 µM throughout. Moreover, the TGI in the assay with M14 melanoma, with SF-539 CNS, in the assay with SK-MEL-2 melanoma, in the assay with NCI-H460 lung, in the assay on CAKI-1 renal and in the assay with NCI-H23 lung was more than 25 µM throughout. For the same compound, the TGI in the assay with NCI-H522 lung, with NCI/ADR-RES ovarian and in the assay with TK-10 renal was more than 25 µM throughout.
For the compound `CCc1ccc2c(c1)C(=O)c1c-2n(CCCN=[N+]=[N-])c(=O)c2cc(OC)c(OC)cc12`, the GI50 in the assay with M14 melanoma was more than 100 µM; with SF-539 CNS, 57.2 µM; with SK-MEL-2 melanoma, more than 100 µM; with NCI-H460 lung, more than 100 µM; in the assay with NCI-H23 lung, more than 100 µM; with NCI-H522 lung, 49 µM. Also, the GI50 with NCI/ADR-RES ovarian is more than 100 µM; in the assay on EKVX NSCLC, more than 100 µM; with TK-10 renal, 44.2 µM. For the same compound, the TGI in the assay on M14 melanoma, in the assay with SF-539 CNS, with SK-MEL-2 melanoma, in the assay with NCI-H460 lung, in the assay with NCI-H23 lung and in the assay on NCI-H522 lung was more than 100 µM each time. Further, the TGI in the assay on NCI/ADR-RES ovarian, in the assay with EKVX NSCLC and in the assay on TK-10 renal was more than 100 µM each time.
For `Cc1ccc(-c2csc(NC(=O)N3CCN(c4cc5c(cc4F)c(=O)c(C(=O)O)cn5C4CC4)CC3)n2)cc1`, the GI50 was 1.2 µM in the assay with M14 melanoma; 0.418 µM in the assay with SF-539 CNS; 1.37 µM in the assay on SK-MEL-2 melanoma; 0.355 µM with NCI-H460 lung; 0.391 µM with NCI-H23 lung; 0.291 µM in the assay on NCI-H522 lung. In addition, the figures for the GI50 in the assay with NCI/ADR-RES ovarian and in the assay with EKVX NSCLC were 4.65 µM and 1.49 µM, respectively. For the same compound, the TGI in the assay on M14 melanoma was more than 100 µM; with SF-539 CNS it was more than 100 µM; in the assay on SK-MEL-2 melanoma, 4.36 µM; with NCI-H460 lung, more than 100 µM; in the assay with NCI-H23 lung, more than 100 µM; in the assay with NCI-H522 lung, 2.15 µM. Moreover, the TGI in the assay with NCI/ADR-RES ovarian and in the assay on EKVX NSCLC was more than 100 µM throughout.
`O=[N+]([O-])c1cc(Cl)cnc1Br`: the TGI is 16.3 µM with M14 melanoma; 4.5 µM in the assay on SF-539 CNS; 15.2 µM with NCI-H460 lung; 24.2 µM in the assay on NCI-H23 lung; 6.72 µM with NCI/ADR-RES ovarian; 15.2 µM in the assay with EKVX NSCLC. Besides, in the assay with TK-10 renal, the TGI amounted to 12.4 µM.
`[O-]c1ccccc1/C=N/C(/N=C/c1ccccc1[O-])c1ccccc1O.[O-]c1ccccc1/C=N/C(/N=C/c1ccccc1[O-])c1ccccc1O.[Zr+4]`: the GI50 was 46.6 µM with M14 melanoma; 17.8 µM in the assay with SF-539 CNS; 34 µM with NCI-H460 lung; 10.9 µM in the assay on NCI-H522 lung; more than 100 µM in the assay on NCI/ADR-RES ovarian; 46.1 µM with EKVX NSCLC. Moreover, the GI50 in the assay with TK-10 renal is 43.6 µM. Moreover, the TGI is more than 100 µM in the assay on M14 melanoma; more than 100 µM in the assay on SF-539 CNS; more than 100 µM in the assay with NCI-H460 lung; 65.3 µM in the assay on NCI-H522 lung; more than 100 µM in the assay on NCI/ADR-RES ovarian; more than 100 µM in the assay on EKVX NSCLC. Further, the TGI with TK-10 renal is more than 100 µM.
